Experimental data as given in patent US20250340591A1, “COMPOSITION FOR PREVENTING OR TREATING INFLAMMATORY BOWEL DISEASE CONTAINING NOVEL COMPOUND” (ANYGEN CO., LTD., priority 2021, published 2025).
Square brackets hold non-standard residues; d marks the D form. Peptide text beside a SMILES is read from it. * marks the point of attachment. Tyr(3,5-(NO2)2) = N[C@@H](Cc1cc([N+](=O)[O-])c(O)c([N+](=O)[O-])c1)C(=O)O; His(Trt) = N[C@@H](Cc1cn(C(c2ccccc2)(c2ccccc2)c2ccccc2)cn1)C(=O)O; dHis(Trt) = N[C@H](Cc1cn(C(c2ccccc2)(c2ccccc2)c2ccccc2)cn1)C(=O)O; His(τ-CHPh2) = N[C@@H](Cc1cn(C(c2ccccc2)c2ccccc2)cn1)C(=O)O; sY = N[C@@H](Cc1ccc(OS(=O)(=O)O)cc1)C(=O)O; dPhe(4-Cl) = N[C@H](Cc1ccc(Cl)cc1)C(=O)O; dPhe(4-Me) = Cc1ccc(C[C@@H](N)C(=O)O)cc1; d3Pal = N[C@H](Cc1cccnc1)C(=O)O; Octanoyl = CCCCCCCC(=O)*; Orn = NCCC[C@H](N)C(=O)O

These compounds were tested against T1, GPR39 (Homo sapiens, UniProt O43194) (assay: luciferase assay system (SRE luciferase reporter gene, CV-1 cells expressing GPR39)). Conditions: not given.
T1 sequence (O43194 1-453): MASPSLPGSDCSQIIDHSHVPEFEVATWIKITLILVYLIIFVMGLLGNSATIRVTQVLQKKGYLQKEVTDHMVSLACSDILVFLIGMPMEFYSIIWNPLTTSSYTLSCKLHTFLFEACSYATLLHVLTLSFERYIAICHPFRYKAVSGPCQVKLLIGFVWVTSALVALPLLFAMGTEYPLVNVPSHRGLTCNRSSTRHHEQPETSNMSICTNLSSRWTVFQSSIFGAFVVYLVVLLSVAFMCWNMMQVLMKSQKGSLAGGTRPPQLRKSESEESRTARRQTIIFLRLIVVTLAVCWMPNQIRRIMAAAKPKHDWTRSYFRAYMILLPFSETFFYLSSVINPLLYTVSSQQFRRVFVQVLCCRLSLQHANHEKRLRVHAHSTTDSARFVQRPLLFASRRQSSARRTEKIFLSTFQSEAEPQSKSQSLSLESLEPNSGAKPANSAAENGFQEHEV
Assay type: cell-based
Set-up: expressed in transfected cells; host or cells: CV-1 fibroblast cell line (Korea Cell Line Bank), adenoviral transduction at 50 MOI

Compound | ECmax (−fold induction over basal)
CCCCCCCC(=O)NCCCC[C@H](NC(=O)[C@H](N)Cc1cn(C(c2ccccc2)(c2ccccc2)c2ccccc2)cn1)C(=O)N[C@@H](Cc1ccccc1)C(=O)N[C@@H](Cc1ccc(O)cc1)C(=O)O [HKFY-4, N6-octanoyl-N2-(Nt-trityl-D-histidyl)-L-lysyl-L-phenylalanyl-L-tyrosine] (H-[dHis(Trt)]K(Octanoyl)FY-OH) | 16.8 ± 1.87 fold induction over basal
CCCCCCCC(=O)NCCCC[C@H](NC(=O)[C@@H](N)Cc1cn(C(c2ccccc2)(c2ccccc2)c2ccccc2)cn1)C(=O)N[C@H](Cc1ccc(Cl)cc1)C(=O)N[C@H](Cc1ccc(O)cc1)C(=O)O [HKFY-15, ((R)-2-((S)-2-((S)-2-amino-3-(1-trityl-1H-imidazol-4-yl)propanamido)-6-octanamidohexanamido)-3-(4-chlorophenyl)propanoyl)-D-tyrosine] (H-[His(Trt)]K(Octanoyl)[dPhe(4-Cl)][dY]-OH) | 24.7 ± 2.6 fold induction over basal
CCCCCCCC(=O)NCCCC[C@H](NC(=O)[C@@H](N)Cc1cn(CCc2ccccc2)cn1)C(=O)N[C@@H](Cc1ccccc1)C(=O)N[C@@H](Cc1ccc(O)cc1)C(=O)O [HKFY-9, N6-octanoyl-N2-(Nt-phenethyl-L-histidyl)-L-lysyl-L-phenylalanyl-L-tyrosine] | 21 ± 2.52 fold induction over basal
CCCCCCCC(=O)NCCCC[C@H](NC(=O)[C@@H](N)Cc1cn(CCC(c2ccccc2)c2ccccc2)cn1)C(=O)N[C@@H](Cc1ccccc1)C(=O)N[C@@H](Cc1ccc(O)cc1)C(=O)O [HKFY-17] | 20 ± 0.57 fold induction over basal
CCCCCCCC(=O)NCCCC[C@@H](NC(=O)[C@@H](N)Cc1cn(C(c2ccccc2)(c2ccccc2)c2ccccc2)cn1)C(=O)N[C@H](Cc1ccc(Cl)cc1)C(=O)N[C@@H](Cc1ccc(O)cc1)C(=O)O [HKFY-16, ((R)-2-((R)-2-((S)-2-amino-3-(1-trityl-1H-imidazol-4-yl)propanamido)-6-octanamidohexanamido)-3-(4-chlorophenyl)propanoyl)-L-tyrosine] (H-[His(Trt)][dK](Octanoyl)[dPhe(4-Cl)]Y-OH) | 27.9 ± 3.4 fold induction over basal

More lines, now with the values ahead:

ECmax (−fold induction over basal) | Compound
9.12 ± 2.1 fold induction over basal | CCCCCCCC(=O)NCCCC[C@H](NC(=O)[C@@H](N)Cc1cn(-c2ccccc2)cn1)C(=O)N[C@H](Cc1ccc(C)cc1)C(=O)N[C@@H](Cc1ccc(O)cc1)C(=O)O [HKFY-58, ((R)-2-((S)-2-((S)-2-amino-3-(1-phenyl-1H-imidazol-4-yl)propanamido)-6-octanamidohexanamido)-3-(p-tolyl)propanoyl)-L-tyrosine]
16.4 ± 2.51 fold induction over basal | CCCCCCCC(=O)NCCC[C@H](NC(=O)[C@@H](N)Cc1cn(C(c2ccccc2)c2ccccc2)cn1)C(=O)N[C@H](Cc1ccc(C)cc1)C(=O)N[C@@H](Cc1ccc(O)cc1)C(=O)O [HKFY-71, ((R)-2-((S)-2-((S)-2-amino-3-(1-benzhydryl-1H-imidazol-4-yl)propanamido)-5-octanamidopentanamido)-3-(p-tolyl)propanoyl)-L-tyrosine] (H-[His(τ-CHPh2)][Orn](Octanoyl)[dPhe(4-Me)]Y-OH)
11.6 ± 2.3 fold induction over basal | CCCCCCCC(=O)NCCCC[C@H](NC(=O)[C@@H](N)Cc1cn(C(c2ccccc2)(c2ccccc2)c2ccccc2)cn1)C(=O)N[C@H](Cc1cccnc1)C(=O)N[C@@H](Cc1ccc(O)cc1)C(=O)O [HKFY-73, ((R)-2-((S)-2-((S)-2-amino-3-(1-trityl-1H-imidazol-4-yl)propanamido)-6-octanamidohexanamido)-3-(pyridin-3-yl)propanoyl)-L-tyrosine] (H-[His(Trt)]K(Octanoyl)[d3Pal]Y-OH)
18.9 ± 0.41 fold induction over basal | CCCCCCCC(=O)NCCCC[C@H](NC(=O)[C@@H](N)Cc1cn(C(c2ccccc2)c2ccccc2)cn1)C(=O)N[C@H](Cc1ccc(C)cc1)C(=O)N[C@@H](Cc1ccc(OS(=O)(=O)O)cc1)C(=O)O [HKFY-35, (S)-2-((R)-2-((S)-2-((S)-2-amino-3-(1-benzhydryl-1H-imidazol-4-yl)propanamido)-6-octanamidohexanamido)-3-(p-tolyl)propanamido)-3-(4-(sulfooxy)phenyl)propanoic acid] (H-[His(τ-CHPh2)]K(Octanoyl)[dPhe(4-Me)][sY]-OH)
18.3 ± 2.5 fold induction over basal | CCCCCCCC(=O)NCCCC[C@H](NC(=O)[C@@H](N)Cc1cn([C@H](c2ccccc2)c2ccc(Cl)cc2)cn1)C(=O)N[C@@H](Cc1ccccc1)C(=O)N[C@@H](Cc1ccc(O)cc1)C(=O)O [HKFY-21, N2-(Nt-((R)-(4-chlorophenyl)(phenyl)methyl)-L-histidyl)-N6-octanoyl-L-lysyl-L-phenylalanyl-L-tyrosine]
20.9 ± 2.51 fold induction over basal | CCCCCCCC(=O)NCCCC[C@H](NC(=O)[C@H](N)Cc1cn(C(c2ccccc2)(c2ccccc2)c2ccccc2)cn1)C(=O)N[C@H](Cc1ccc(C)cc1)C(=O)N[C@@H](Cc1ccc(O)cc1)C(=O)O [HKFY-31, ((R)-2-((S)-2-((R)-2-amino-3-(1-trityl-1H-imidazol-4-yl)propanamido)-6-octanamidohexanamido)-3-(p-tolyl)propanoyl)-L-tyrosine] (H-[dHis(Trt)]K(Octanoyl)[dPhe(4-Me)]Y-OH)
13.5 ± 1.8 fold induction over basal | CCCCCCCC(=O)NCCCC[C@H](NC(=O)[C@@H](N)Cc1c[nH]c(-c2cccs2)n1)C(=O)N[C@H](Cc1ccc(C)cc1)C(=O)N[C@@H](Cc1ccc(O)cc1)C(=O)O [HKFY-63, ((R)-2-((S)-2-((S)-2-amino-3-(2-(thiophen-2-yl)-1H-imidazol-4-yl)propanamido)-6-octanamidohexanamido)-3-(p-tolyl)propanoyl)-L-tyrosine]
11.6 ± 2.14 fold induction over basal | CCCCCCCC(=O)NCCCC[C@H](NC(=O)[C@@H](N)Cc1cn(Cc2ccc(-c3ccccc3-c3nnn[nH]3)cc2)cn1)C(=O)N[C@H](Cc1ccc(C)cc1)C(=O)N[C@@H](Cc1ccc(O)cc1)C(=O)O [HKFY-77, ((R)-2-((S)-2-((S)-3-(1-((2′-(1H-tetrazol-5-yl)-[1,1′-biphenyl]-4-yl)methyl)-1H-imidazol-4-yl)-2-aminopropanamido)-6-octanamidohexanamido)-3-(p-tolyl)propanoyl)-L-tyrosine]

Same assay, conditions: CV-1 cells, GPR39 and SRE luciferase adenovirus, 6 hours treatment

Compound | ECmax (−fold induction over basal)
CCCCCCCC(=O)NCCCC[C@H](NC(=O)[C@@H](N)Cc1cn(C(c2ccccc2)c2ccccc2)cn1)C(=O)N[C@H](Cc1ccc(C)cc1)C(=O)N[C@@H](Cc1cc([N+](=O)[O-])c(O)c([N+](=O)[O-])c1)C(=O)O [HKFY-69, (S)-2-((R)-2-((S)-2-((S)-2-amino-3-(1-benzhydryl-1H-imidazol-4-yl)propanamido)-6-octanamidohexanamido)-3-(p-tolyl)propanamido)-3-(4-hydroxy-3,5-dinitrophenyl)propanoic acid] (H-[His(τ-CHPh2)]K(Octanoyl)[dPhe(4-Me)][Tyr(3,5-(NO2)2)]-OH) | 12.2 ± 2.5 fold induction over basal

Same assay, conditions: comment on Table 3

Compound | activity level for GPR39 (in words)
CCCCCCCC(=O)NCCCC[C@H](NC(=O)[C@@H](N)Cc1c[nH]c(-c2cccs2)n1)C(=O)N[C@H](Cc1ccc(C)cc1)C(=O)N[C@@H](Cc1ccc(O)cc1)C(=O)O [HKFY-63, ((R)-2-((S)-2-((S)-2-amino-3-(2-(thiophen-2-yl)-1H-imidazol-4-yl)propanamido)-6-octanamidohexanamido)-3-(p-tolyl)propanoyl)-L-tyrosine] | higher activity level than other HKFY derivatives
